Measured values published in patent US20160157479A1, “ANTIFUNGAL COMPOSITION AND METHOD” (OMEX INTERNATIONAL LIMITED, priority 2013, published 2016).

Columns and labels:
Photodecomposition study = format: physicochemical; conditions: 0.1% vanillin
Procedure: The following samples were prepared by diluting down the specified composition with water: • VS, vanillin solution in water @ 0.1% vanillin; • 0.4% dilution of RBEF-024 (0.1% vanillin); and • 0.4% dilution of RBEF-030 (0.1% vanillin). • 5 ml of the diluted material was pipetted into 3 pyrex crystallisation dishes; the surface was covered with muslin and the samples placed in a light box for 1, 3 and 5 days respectively with high intensity white light applied for 5 hours out of every 24 hours.
As a control, three equivalent samples were placed in crystallisation dishes which were placed in the dark (inside a cupboard).
At the end of each time period the contents of the crystallisation dishes were washed out with 4×5 mL methanol (magnetic stirrer used at each addition to dissolve any solid vanillin) and the washings transferred to a 25 mL volumetric flask and made up to volume with methanol.
As an initial control (t=0 days), 5 mL of each dilution was pipetted into a 25 mL volumetric flask and made up to volume with methanol.

[1] = Light-fastness study (Oxynex ST photostabiliser); format: physicochemical; conditions: 0.1% vanillin, light box 5000 lux
Procedure: A composition without any photostabiliser was used as a base composition (no photostabiliser).
Method: Each formulation was diluted with water to 0.1% vanillin (as pure) and 5 mL was applied by pipette to a glass petri dish. The dishes were left to stand in a light box fitted with 2×40 W fluorescent daylight bulbs with an illumination intensity of 5000 lux. The dishes were extracted with methanol and made up to 25 mL in a volumetric flask after 3 and 5 days. Samples were then analysed by HPLC.

[2] = Light-fastness study, ratio of Oxynex ST:ascorbic acid; format: physicochemical; conditions: 0.1% vanillin, 1500 Lux 5 hours per day
Procedure: The formulations used for these experiments are described in TABLE 12. Various ratios of Oxynex ST and ascorbic acid were used in the composition to determine the effect on photostability.
(§1) Method: Formulations were diluted with water to 0.1% vanillin and 5 mL transferred by pipette to a 100 mL crystallising dish. All dishes were placed in a light box containing two 60 cm high efficiency 24 W fluorescent bulbs housed in a canopy to provide bright, full spectrum lighting closely resembling daylight (6400 Kelvin). The dishes were covered with muslin sheets to reduce the intensity of the light to 1500 Lux on a programme of 5 hours per day. At specific time intervals the dishes were extracted and made up to volume with methanol. Samples were analysed by HPLC.

cabbage leaf discs = test: Effect of composition on leaf-penetration; conditions: 0.1% vanillin
Procedure: 14.5 cm cabbage leaf discs were cut and placed in a petri dish and treated with a diluted composition. At the same time a second petri dish (control) was treated with the same diluted composition with no leaf present and stored in the dark for the duration of the test.
Test time periods were 1, 2, 4, 6 & 24 hours after application. The application was performed using an artist's air brush at low pressure to give a deposit of circa 2 g of spray diluted composition.
At the appropriate time period, the leaf disc was washed with methanol and the washings collected and made up to 25 mL with methanol. The appropriate control petri dish was also washed with methanol and the volume made up to 25 mL.
For each treatment a spray control was prepared by diluting 5 mL of spray liquid to 50 mL in a volumetric flask with methanol. The spray control is applied to the leaf and is used to determine the amount of vanillin applied to the leaf surface for each test.
The amount of vanillin washed from the leaf surface was subtracted from the amount washed from the petri dish control to determine how much of the vanillin has moved into the leaf sub-surface layer as a function of the formulation.

[3] = Light-fastness study, addition of ascorbic acid; format: physicochemical; conditions: 0.1% vanillin, 1500 Lux 5 hours per day
Procedure: The formulations used for these experiments are described in TABLE 10. Oxynex ST (5%) and Oxynex ST (5%) with ascorbic acid (1%) were added to the composition to determine the effect on photostability.
as §1

- % Vanillin lost by photo-decomposition (Photodecomposition study; 0 days): 0.0%
- % Vanillin lost by photo-decomposition (Photodecomposition study; light box 5 of 24 hours, 1 day): +0.08%
- % Vanillin lost by photo-decomposition (Photodecomposition study; light box 5 of 24 hours, 3 day): +1.50%
- % Vanillin lost by photo-decomposition (Photodecomposition study; light box 5 of 24 hours, 5 day): +2.08%
- Loss (%) ([1]; 3 days): 6.18%
- Vanillin ([1]; 3 days): 177.65 mg/L
- Loss (%) ([1]; 5 days): 8.49%
- Vanillin (mg/L) 2 ([2]; 0 days): 200.48 mg/L
- Vanillin mg/dish ([2]; 0 days): 5.02 mg/dish
- Loss (%) ([2]; 1 day): −1.19%
- Vanillin mg/dish ([2]; 1 day): 4.96 mg/dish
- Loss (%) ([2]; 2 days): −0.11%
- Vanillin mg/dish ([2]; 2 days): 4.96 mg/dish
- Loss (%) ([2]; 3 days): −1.17%
- Vanillin mg/dish ([2]; 3 days): 4.90 mg/dish
- % Vanillin penetrating through leaf cuticle surface (cabbage leaf discs; 1 hour after application): 0.4%
- % Vanillin penetrating through leaf cuticle surface (cabbage leaf discs; 2 hour after application): 2.5%
- % Vanillin penetrating through leaf cuticle surface (cabbage leaf discs; 4 hour after application): 1.7%
- % Vanillin penetrating through leaf cuticle surface (cabbage leaf discs; 6 hour after application): 5.0%
- % Vanillin penetrating through leaf cuticle surface (cabbage leaf discs; 24 hour after application): 8.5%
- Concentration (mg/dish) ([3]; 0 days): 5.87 mg/dish
- Loss (%) ([3]; 0 days): 0.00%
- Concentration (mg/dish) ([3]; 1 day): 5.85 mg/dish
- Loss (%) ([3]; 1 day): 0.34%
- Loss (%) ([3]; 3 days): 3.92%
- Concentration (mg/dish) ([3]; 7 days): 5.53 mg/dish
- Loss (%) ([3]; 7 days): 5.79%
- Concentration (mg/dish) ([3]; 14 days): 5.22 mg/dish
SMILES: COc1cc(C=O)ccc1O [0.1% Vanillin Technical in water, 4-Hydroxy-3-methoxybenzaldehyde]
